Test results reported in patent publication US20250171495A1, “MUTLI-TARGETED SERINE PROTEASE INHIBITORS FOR TREATMENT OF CANCER AND VIRAL INFECTION” (Washington University, priority 2023, published 2025).
pIC50: −log10 of the molar value. Where two headings read alike, the source gives them in different places.

How the values were obtained:
Type in all cases: biochemical
matriptase = target: T1, matriptase (Homo sapiens, UniProt Q9Y5Y6); assay: Fluorogenic kinetic enzyme inhibitor assay, matriptase
T1 construct: purchased R&D Systems 3946-SEB-010
T1 sequence (Q9Y5Y6 615-855 limits assumed): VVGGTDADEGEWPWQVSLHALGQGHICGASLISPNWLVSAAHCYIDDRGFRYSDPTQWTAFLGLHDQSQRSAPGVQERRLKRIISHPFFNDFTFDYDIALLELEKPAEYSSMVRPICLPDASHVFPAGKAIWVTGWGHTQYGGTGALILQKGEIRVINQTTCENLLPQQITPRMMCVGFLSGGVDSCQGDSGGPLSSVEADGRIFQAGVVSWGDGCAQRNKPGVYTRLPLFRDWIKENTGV

hepsin = target: T2, hepsin (Homo sapiens, UniProt P05981); assay: Fluorogenic kinetic enzyme inhibitor assay, hepsin
T2 construct: purchased R&D Systems 4776-SE-010
T2 sequence (P05981 163-417 limits assumed): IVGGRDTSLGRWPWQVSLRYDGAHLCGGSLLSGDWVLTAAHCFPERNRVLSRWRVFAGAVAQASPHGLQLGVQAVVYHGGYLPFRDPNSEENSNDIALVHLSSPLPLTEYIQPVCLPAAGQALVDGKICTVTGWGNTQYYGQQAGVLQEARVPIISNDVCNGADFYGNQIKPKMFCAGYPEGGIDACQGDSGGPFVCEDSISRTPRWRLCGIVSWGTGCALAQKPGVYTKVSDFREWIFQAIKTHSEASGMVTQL
T2 sequence (P05981 1-162 partner limits assumed): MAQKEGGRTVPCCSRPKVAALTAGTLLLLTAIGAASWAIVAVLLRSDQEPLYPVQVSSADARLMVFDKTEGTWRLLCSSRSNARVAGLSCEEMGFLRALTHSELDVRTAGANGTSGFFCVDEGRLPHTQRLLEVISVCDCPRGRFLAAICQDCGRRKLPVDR

HGFA = target: T3, HGFA (Homo sapiens, UniProt Q04756); assay: Fluorogenic kinetic enzyme inhibitor assay, HGFA
T3 construct: purchased R&D Systems 1514-SE-010
T3 sequence (Q04756 408-655 limits assumed): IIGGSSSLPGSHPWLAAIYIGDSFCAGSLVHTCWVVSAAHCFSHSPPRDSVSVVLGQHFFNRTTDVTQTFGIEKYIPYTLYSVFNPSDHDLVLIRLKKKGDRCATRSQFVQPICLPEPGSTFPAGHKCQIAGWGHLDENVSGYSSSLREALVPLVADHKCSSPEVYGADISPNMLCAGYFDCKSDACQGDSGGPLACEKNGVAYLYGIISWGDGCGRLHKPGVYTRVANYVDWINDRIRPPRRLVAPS
T3 sequence (Q04756 373-407 partner limits assumed): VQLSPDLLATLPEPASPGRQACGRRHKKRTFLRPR

Thrombin = Thrombin (Homo sapiens, UniProt P00734); assay: Fluorogenic assay, thrombin
Factor Xa = target: T4, Factor Xa (Homo sapiens, UniProt P00742); assay: Fluorogenic assay, Factor Xa
T4 construct: TMPRSS2; Matriptase; Hepsin; HGFA; Thrombin; Factor Xa
T4 sequence (P00742 235-488 limits assumed): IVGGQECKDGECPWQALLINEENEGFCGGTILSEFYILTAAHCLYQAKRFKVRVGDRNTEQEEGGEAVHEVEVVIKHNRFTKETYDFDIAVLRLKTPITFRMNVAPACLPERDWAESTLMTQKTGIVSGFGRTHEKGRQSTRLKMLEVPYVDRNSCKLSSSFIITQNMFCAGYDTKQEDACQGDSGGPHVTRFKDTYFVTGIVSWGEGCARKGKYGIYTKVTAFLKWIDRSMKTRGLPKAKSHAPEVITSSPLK
T4 sequence (P00742 41-179 partner limits assumed): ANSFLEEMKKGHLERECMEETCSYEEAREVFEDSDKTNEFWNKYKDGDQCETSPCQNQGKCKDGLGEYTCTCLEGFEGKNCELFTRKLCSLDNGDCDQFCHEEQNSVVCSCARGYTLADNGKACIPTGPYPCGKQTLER

TMPRSS2 = TMPRSS2 (Homo sapiens, UniProt O15393); assay: Fluorogenic kinetic enzyme inhibitor assay, TMPRSS2; set-up: purchased Cusabio Technology CSB-YP023924HU; settings: read-out: TMPRSS2 IC50
Sequence of TMPRSS2 (O15393 106-492 limits assumed): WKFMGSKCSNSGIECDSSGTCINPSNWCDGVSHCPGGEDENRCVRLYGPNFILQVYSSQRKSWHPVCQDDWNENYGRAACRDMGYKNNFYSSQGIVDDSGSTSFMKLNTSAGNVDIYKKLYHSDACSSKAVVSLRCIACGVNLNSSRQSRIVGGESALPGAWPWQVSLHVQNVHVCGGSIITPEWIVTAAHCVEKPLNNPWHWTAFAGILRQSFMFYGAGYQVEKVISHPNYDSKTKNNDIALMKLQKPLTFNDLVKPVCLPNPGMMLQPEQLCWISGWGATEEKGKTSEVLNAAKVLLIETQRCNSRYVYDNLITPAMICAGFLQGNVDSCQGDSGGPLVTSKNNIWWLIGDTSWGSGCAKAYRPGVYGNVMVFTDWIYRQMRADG

Compound | pIC50 (matriptase; read-out: Matriptase IC50) | pIC50 (hepsin; read-out: Hepsin IC50) | pIC50 (HGFA; read-out: HGFA IC50) | pIC50 (Thrombin) | pIC50 (Factor Xa; read-out: Factor Xa IC50) | pIC50 (TMPRSS2) | pIC50 (matriptase) | pIC50 (hepsin) | pIC50 (HGFA) | pIC50 (Factor Xa)
N=C(N)NCCC[C@@H](NC(=O)[C@H](Cc1ccccc1)NC(=O)[C@H](CCC(N)=O)NCCc1ccccc1)C(=O)c1nc2ccccc2s1 [CA1033-1, N-[(S)-1-[N-(R)-1-[(1,3-benzothiazol-2-yl)carbonyl]-4-guanidinobutylcarbamoyl]-2-phenylethyl](S)-2-(phenethylamino)glutaramide] | 7.11 | 8.03 | 5.54 | < 4.70 | 4.77 | 7.78 | – | – | – | –
N=C(N)NCCC[C@H](NC(=O)[C@H](Cc1ccccc1)NC(=O)[C@H](CCC(N)=O)NCCc1ccccc1)C(=O)c1nc2ccccc2s1 [CA1033-2, N-[(S)-1-[N-(S)-1-[(1,3-benzothiazol-2-yl)carbonyl]-4-guanidinobutylcarbamoyl]-2-phenylethyl](S)-2-(phenethylamino)glutaramide] | 8.55 | 9.52 | 7.31 | 4.99 | 5.97 | 9.50 | – | – | – | –
CN(C)[C@@H](CCC(N)=O)C(=O)N[C@@H](Cc1ccccc1)C(=O)N[C@H](CCCNC(=N)N)C(=O)c1nc2ccccc2s1 [CA1041-1, N-[(S)-1-[N-(R)-1-[(1,3-benzothiazol-2-yl)carbonyl]-4-guanidinobutylcarbamoyl]-2-phenylethyl](S)-2-(dimethylamino)glutaramide] | 6.84 | 6.91 | < 4.70 | < 4.70 | 5.15 | 7.73 | – | – | – | –
CN(C)[C@@H](CCC(N)=O)C(=O)N[C@@H](Cc1ccccc1)C(=O)N[C@@H](CCCNC(=N)N)C(=O)c1nc2ccccc2s1 [CA1041-2, N-[(S)-1-[N-(S)-1-[(1,3-benzothiazol-2-yl)carbonyl]-4-guanidinobutylcarbamoyl]-2-phenylethyl](S)-2-(dimethylamino)glutaramide] | 8.46 | 8.72 | 6.22 | < 4.70 | 5.48 | 9.07 | – | – | – | –
N=C(N)NCCC[C@H](NC(=O)[C@H](Cc1ccccc1)NC(=O)[C@H](CCC(N)=O)NC(=O)c1ccccc1)C(=O)c1nc2ccccc2s1 [CA1043] | 9.06 | 9.96 | 8.07 | < 4.70 | 5.80 | 10.09 | – | – | – | –
N=C(N)NCCC[C@@H](NC(=O)[C@H](Cc1ccccc1)NC(=O)[C@H](CCC(N)=O)N1CCCCC1)C(=O)c1nc2ccccc2s1 [CA1046-1, N-[(S)-1-[N-(R)-1-[(1,3-benzothiazol-2-yl)carbonyl]-4-guanidinobutylcarbamoyl]-2-phenylethyl](S)-2-piperidinoglutaramide] | 5.75 | 6.98 | < 4.70 | < 4.70 | 4.91 | 7.16 | – | – | – | –
N=C(N)NCCC[C@H](NC(=O)[C@H](Cc1ccccc1)NC(=O)[C@H](CCC(N)=O)N1CCCCC1)C(=O)c1nc2ccccc2s1 [CA1046-2, N-[(S)-1-[N-(S)-1-[(1,3-benzothiazol-2-yl)carbonyl]-4-guanidinobutylcarbamoyl]-2-phenylethyl](S)-2-piperidinoglutaramide] | 7.38 | 9.43 | 6.15 | < 4.70 | 5.68 | 8.08 | – | – | – | –
CC(=O)N[C@@H](Cc1cncn1COCc1ccccc1)C(=O)N[C@@H](CCCCNC(=N)N)C(=O)N[C@@H](CCC(C)C)C(=O)N[C@H](CCCNC(=N)N)C(=O)c1nc2ccccc2s1 [JH1143-1, N-[(R)-1-[(1,3-benzothiazol-2-yl)carbonyl]-4-guanidinobutyl](S)-2-[(S)-1-[(S)-2-acetylamino-3-{1-[(benzyloxy)methyl]-5-imidazolyl}propionylamino]-5-guanidinopentylcarbonylamino]-5-methylhexanamide] | – | 8.72 | 6.27 | 5.31 | 5.32 | 8.12 | 8.52 | – | – | –
N=C(N)NCCC[C@H](NC(=O)[C@H](Cc1ccccc1)NC(=O)OCC1c2ccccc2-c2ccccc21)C(=O)c1nc2ccccc2s1 [MF1133, (S)-1-[N-(S)-1-[(1,3-benzothiazol-2-yl)carbonyl]-4-guanidinobutylcarbamoyl]-2-phenylethyl(9H-fluoren-9-yl)methanecarbamate] | 5.59 | 5.57 | 5.72 | < 4.70 | 7.55 | 7.71 | – | – | – | –
CSCC[C@H](NC(C)=O)C(=O)N[C@@H](CCC(N)=O)C(=O)N[C@@H](Cc1ccccc1)C(=O)N[C@@H](CCCNC(=N)N)C(=O)c1nc2ccccc2s1 [MM3130, N-[(S)-1-[N-(S)-1-[(1,3-benzothiazol-2-yl)carbonyl]-4-guanidinobutylcarbamoyl]-2-phenylethyl](S)-2-[(S)-2-acetylamino-4-(methylthio)butyrylamino] glutaramide] | – | – | – | < 4.70 | 6.47 | 9.85 | 9.26 | 9.87 | 7.44 | –
CC(=O)N[C@@H](CC(C)C)C(=O)N[C@@H](CCC(N)=O)C(=O)N[C@@H](Cc1ccccc1)C(=O)N[C@@H](CCCNC(=N)N)C(=O)c1nc2ccccc2s1 [MM3131, N-[(S)-1-[N-(S)-1-[(1,3-benzothiazol-2-yl)carbonyl]-4-guanidinobutylcarbamoyl]-2-phenylethyl](S)-2-[(S)-2-acetylamino-4-methylvalerylamino]glutaramide] | – | – | – | < 4.70 | – | 10.51 | 8.74 | 9.61 | 7.01 | 6.66
CCC(C)[C@H](NC(C)=O)C(=O)N[C@@H](CCC(N)=O)C(=O)N[C@@H](C)C(=O)N[C@@H](CCCNC(=N)N)C(=O)c1nc2ccccc2s1 (stereo partly drawn) [MM3178, N-[(S)-1-[N-(S)-1-[(1,3-benzothiazol-2-yl)carbonyl]-4-guanidinobutylcarbamoyl]ethyl](S)-2-[(2S)-2-acetylamino-3-methylvalerylamino]glutaramide] | – | 8.90 | < 4.70 | < 4.70 | 6.77 | 9.64 | 10.00 | – | – | –
CCC(C)[C@H](NC(C)=O)C(=O)N[C@@H](CCC(N)=O)C(=O)N[C@@H](Cc1c[nH]c2ccccc12)C(=O)N[C@@H](CCCNC(=N)N)C(=O)c1nc2ccccc2s1 (stereo partly drawn) [MM3187, N-[(S)-2-(3-indolyl)-1-[N-(S)-1-[(1,3-benzothiazol-2-yl)carbonyl]-4-guanidinobutylcarbamoyl]ethyl](S)-2-[(2S)-2-acetylamino-3-methylvalerylamino]glutaramide] | – | 9.50 | 5.84 | < 4.70 | 6.89 | 8.66 | 8.91 | – | – | –
CC(=O)N[C@H](Cc1c[nH]c2ccccc12)C(=O)N[C@@H](Cc1ccccc1)C(=O)N[C@@H](CCCNC(=N)N)C(=O)c1nc2ccccc2s1 [PK-1-89A1, N-[(S)-1-[(1,3-benzothiazol-2-yl)carbonyl]-4-guanidinobutyl](S)-2-[(R)-2-acetylamino-3-(3-indolyl)propionylamino]-3-phenylpropionamide] | 8.59 | 8.96 | 7.57 | < 4.70 | 7.01 | 9.81 | – | – | – | –
CC(=O)N[C@H](Cc1c[nH]c2ccccc12)C(=O)N[C@@H](CC(C)C)C(=O)N[C@@H](CCCNC(=N)N)C(=O)c1nc2ccccc2s1 [PK-1-91, N-[(S)-1-[(1,3-benzothiazol-2-yl)carbonyl]-4-guanidinobutyl](S)-2-[(R)-2-acetylamino-3-(3-indolyl)propionylamino]-4-methylvaleramide] | 7.41 | 8.80 | 6.98 | 5.03 | 5.84 | 10.59 | – | – | – | –
CC(=O)N[C@@H](Cc1c[nH]c2ccccc12)C(=O)N[C@@H](Cc1ccccc1)C(=O)N[C@@H](CCCNC(=N)N)C(=O)c1nc2ccccc2s1 [PK-1-102A1, N-[(S)-1-[(1,3-benzothiazol-2-yl)carbonyl]-4-guanidinobutyl](S)-2-[(S)-2-acetylamino-3-(3-indolyl)propionylamino]-3-phenylpropionamide] | 8.24 | 8.12 | 6.48 | < 4.70 | 7.67 | 9.41 | – | – | – | –
CC(=O)N[C@@H](Cc1c[nH]c2ccccc12)C(=O)N[C@@H](CC(C)C)C(=O)N[C@@H](CCCNC(=N)N)C(=O)c1nc2ccccc2s1 [PK-1-104, N-[(S)-1-[(1,3-benzothiazol-2-yl)carbonyl]-4-guanidinobutyl](S)-2-[(S)-2-acetylamino-3-(3-indolyl)propionylamino]-4-methylvaleramide] | 7.59 | 9.03 | 7.12 | 4.77 | 6.05 | 8.89 | – | – | – | –
